Results reported in the NIST ThermoML archive (doi:10.1016/j.jct.2009.05.008).
± gives the expanded uncertainty stated by the source.

Experiments:
[1] = 298.15 K; 101.33 kPa; Liquid; Vibrating tube method
[2] = refractive index (Na D-line) (dimensionless); settings: 298.15 K; 101.33 kPa; Liquid; Standard Abbe refractometry

**Q.** For `CCOS(=O)(=O)[O-].CC[n+]1cccc(C)c1` [1-ethyl-3-methylpyridinium ethylsulfate], which mass density [1] is on record?
**A.** 1219.61 ± 1.1 kg/m3

**Q.** And the refractive index [2]?
**A.** 1.50591 ± 0.00075
